# Test results as given in PubChem BioAssay AID196 (DTP/NCI, 2004).
# Where “and” joins values, the source holds several entries; their conditions need not be identical. Equal entries are not always repeated. Toxic doses and inconclusive results are not listed.
# Test system: BDF1 mice, intracerebral B16 melanoma, median survival T/C
# Experiment: NCI In Vivo Anticancer Drug Screen. Data for tumor model B16 Melanoma (intracerebral) in B6D2F1 (BDF1) mice
# Conditions: endpoint: median survival time, higher = longer survival
# Experimental: The antitumor activity of compounds was measured in mice bearing transplantable tumors. Survival or tumor size were measured and the results are expressed as the measurement made in the treated group (T) divided by the measurement made in the vehicle treated control group (C). The tumor model used in this assay is B16 Melanoma (intracerebral) in B6D2F1 (BDF1) mice
# [1] = dose: 5.0 mg/kg/injection, schedule: Q04DX003 (ip), vehicle: Klucel (hydroxypropylcellulose) (HPC)
# [2] = dose: 5.0 mg/kg/injection, schedule: Q04DX003 (ip), vehicle: saline
# [3] = dose: 10.0 mg/kg/injection, schedule: Q04DX003 (ip), vehicle: saline
# [4] = dose: 32.0 mg/kg/injection, schedule: Q01DX005 (ip), vehicle: saline with Tween-80
compound,measurement,setting,value
S=P(N1CC1)(N1CC1)N1CC1,T/C,"dose: 1.0 mg/kg/injection, schedule: Q01DX009 (ip), vehicle: saline",108 % of control (2×) and 113 % of control
same,T/C,"dose: 2.0 mg/kg/injection, schedule: Q01DX009 (ip), vehicle: saline",100 % of control
same,T/C,"dose: 4.0 mg/kg/injection, schedule: Q01DX009 (ip), vehicle: saline",120 % of control and 122 % of control
same,T/C,"dose: 8.0 mg/kg/injection, schedule: Q01DX009 (ip), vehicle: saline",172 % of control
CSCS(=O)C[C@H](CO)NC(=O)/C=C/c1c(C)[nH]c(=O)[nH]c1=O (some centres not stated),T/C,"dose: 0.06 mg/kg/injection, schedule: Q01DX005 (ip), vehicle: Klucel (hydroxypropylcellulose) (HPC)",97 % of control
same,T/C,"dose: 0.12 mg/kg/injection, schedule: Q01DX005 (ip), vehicle: Klucel (hydroxypropylcellulose) (HPC)",98 % of control
same,T/C,"dose: 0.25 mg/kg/injection, schedule: Q01DX005 (ip), vehicle: Klucel (hydroxypropylcellulose) (HPC)",103 % of control
same,T/C,"dose: 0.5 mg/kg/injection, schedule: Q01DX005 (ip), vehicle: Klucel (hydroxypropylcellulose) (HPC)",98 % of control
COc1cc(NS(C)(=O)=O)ccc1Nc1c2ccccc2nc2c(C)cccc12,T/C,[1],88 % of control
same,T/C,[2],108 % of control
same,T/C,"dose: 10.0 mg/kg/injection, schedule: Q04DX003 (ip), vehicle: Klucel (hydroxypropylcellulose) (HPC)",91 % of control
same,T/C,[3],100 % of control
same,T/C,"dose: 20.0 mg/kg/injection, schedule: Q04DX003 (ip), vehicle: saline",116 % of control
COC(COC(=O)N1CCN(C=O)CC1)C1=C(N2CC2)C(=O)C(C)=C(N2CC2)C1=O (configuration not stated),T/C,"dose: 0.75 mg/kg/injection, schedule: Q01DX009 (ip), vehicle: saline",103 % of control
same,T/C,"dose: 1.5 mg/kg/injection, schedule: Q01DX009 (ip), vehicle: saline",105 % of control
same,T/C,"dose: 3.0 mg/kg/injection, schedule: Q01DX009 (ip), vehicle: saline",114 % of control
same,T/C,"dose: 6.0 mg/kg/injection, schedule: Q01DX009 (ip), vehicle: saline",86 % of control
CCCCCN(C)/N=N/c1nc[nH]c1C(N)=O,T/C,[4],120 % of control
NC(C/[N+]([O-])=N/O)C(=O)O (configuration not stated),T/C,"dose: 3.5 mg/kg/injection, schedule: Q01DX009 (ip), vehicle: saline",97 % of control
same,T/C,"dose: 7.0 mg/kg/injection, schedule: Q01DX009 (ip), vehicle: saline",87 % of control
same,T/C,"dose: 12.5 mg/kg/injection, schedule: Q01DX009 (ip), vehicle: Klucel (hydroxypropylcellulose) (HPC)",107 % of control
same,T/C,"dose: 14.0 mg/kg/injection, schedule: Q01DX009 (ip), vehicle: saline",89 % of control
same,T/C,"dose: 25.0 mg/kg/injection, schedule: Q01DX009 (ip), vehicle: Klucel (hydroxypropylcellulose) (HPC)",100 % of control
same,T/C,"dose: 56.25 mg/kg/injection, schedule: Q01DX009 (ip), vehicle: saline",101 % of control
CC/C(=C(/CC)c1ccc(O)cc1)c1ccc(O)cc1,T/C,"dose: 8.0 mg/kg/injection, schedule: Q01DX009 (ip), vehicle: Klucel (hydroxypropylcellulose) (HPC)",106 % of control
same,T/C,"dose: 16.0 mg/kg/injection, schedule: Q01DX005 (ip), vehicle: saline with Tween-80",100 % of control
same,T/C,"dose: 16.0 mg/kg/injection, schedule: Q01DX009 (ip), vehicle: Klucel (hydroxypropylcellulose) (HPC)",102 % of control
same,T/C,[4],99 % of control and 111 % of control
same,T/C,"dose: 32.0 mg/kg/injection, schedule: Q01DX009 (ip), vehicle: Klucel (hydroxypropylcellulose) (HPC)",95 % of control
same,T/C,"dose: 64.0 mg/kg/injection, schedule: Q01DX005 (ip), vehicle: saline with Tween-80",96 % of control and 103 % of control
same,T/C,"dose: 64.0 mg/kg/injection, schedule: Q01DX009 (ip), vehicle: Klucel (hydroxypropylcellulose) (HPC)",106 % of control
same,T/C,"dose: 128.0 mg/kg/injection, schedule: Q01DX005 (ip), vehicle: saline with Tween-80",88 % of control and 102 % of control
same,T/C,"dose: 128.0 mg/kg/injection, schedule: Q01DX009 (ip), vehicle: Klucel (hydroxypropylcellulose) (HPC)",104 % of control
same,T/C,"dose: 256.0 mg/kg/injection, schedule: Q01DX009 (ip), vehicle: Klucel (hydroxypropylcellulose) (HPC)",111 % of control
COc1cc(NS(C)(=O)=O)ccc1Nc1c2ccccc2nc2ccccc12,T/C,"dose: 0.5 mg/kg/injection, schedule: Q01DX009 (ip), vehicle: distilled water + Tween-80",88 % of control
same,T/C,"dose: 1.0 mg/kg/injection, schedule: Q01DX009 (ip), vehicle: distilled water + Tween-80",116 % of control
same,T/C,"dose: 2.0 mg/kg/injection, schedule: Q01DX009 (ip), vehicle: distilled water + Tween-80",109 % of control
same,T/C,"dose: 4.0 mg/kg/injection, schedule: Q01DX009 (ip), vehicle: distilled water + Tween-80",101 % of control
same,T/C,[1],94 % of control
same,T/C,[2],108 % of control
same,T/C,"dose: 8.0 mg/kg/injection, schedule: Q01DX009 (ip), vehicle: distilled water + Tween-80",97 % of control
same,T/C,[3],112 % of control
